From ChEMBL document CHEMBL1240303, “Inhibiting transcription of chromosomal DNA with antigene peptide nucleic acids” (2005) come the findings set out here.

Experiment [1] relates to T47D. As to the kind of experiment: Reduction in cell proliferation of human T47D cells expressing human progesterone receptor by FACS method. It is filed as functional, cell-based.
For experiment [2], the system named is T47D. As to the kind of experiment: Induction of morphology changes in human T47D cells expressing human progesterone receptor assessed as increase in cell height by confocal microscopy. The class given is functional, cell-based.
Experiment [3] deals with T47D. As to the kind of experiment: Increase in Ezrin mRNA expression in human T47D cells expressing human progesterone receptor by RT-PCR relative to untreated control. It is filed as functional.
Experiment [4] deals with T47D. As to the kind of experiment: Inhibition of human progesterone receptor A protein expression transfected in human T47D cells at 200 nM by Western blot. The class given is functional.
Experiment [5] deals with T47D. As to the kind of experiment: Inhibition of human progesterone receptor B protein expression transfected in human T47D cells at 200 nM by Western blot. The class given is functional.
In experiment [6] the test system is T47D. Put plainly: Inhibition of human progesterone receptor A gene expression transfected in human T47D cells at 200 nM by RT-PCR. The class given is functional, cell-based.
Experiment [7] has as its system T47D. Put plainly: Inhibition of human progesterone receptor B protein expression transfected in human T47D cells at 200 nM in presence of 10 nM of estradiol by Western blot. It is filed as functional, cell-based.
The subject of experiment [8] is T47D. As to the kind of experiment: Inhibition of human progesterone receptor A protein expression transfected in human T47D cells at 200 nM in presence of 10 nM of estradiol by Western blot. The class given is functional, cell-based.
The test system of experiment [9] is T47D. Put plainly: Inhibition of human progesterone receptor B gene expression transfected in human T47D cells at 200 nM by RT-PCR. The class given is functional, cell-based.

The source made the active and inactive calls. No cut-off for these calls is given here.

In the case of `Cc1cn([C@@H]2O[C@H](COP(=O)(O)O[C@H]3[C@@H](O)[C@H](n4cnc5c(=O)[nH]c(N)nc54)O[C@@H]3COP(=O)(O)O[C@H]3[C@@H](O)[C@H](n4ccc(=O)[nH]c4=O)O[C@@H]3COP(=O)(O)O[C@H]3C[C@H](n4cnc5c(N)ncnc54)O[C@@H]3COP(=O)(O)O[C@H]3[C@@H](O)[C@H](N4CC=C(N)NC4=O)O[C@@H]3COP(=O)(O)O[C@H]3[C@@H](O)[C@H](n4ccc(=O)[nH]c4=O)O[C@@H]3COP(=O)(O)O[C@H]3[C@@H](O)[C@H](N4CC=C(N)NC4=O)O[C@@H]3COP(=O)(O)O[C@H]3C[C@H](n4cnc5c(=O)[nH]c(N)nc54)O[C@@H]3COP(=O)(O)O[C@H]3[C@@H](O)[C@H](n4ccc(N)nc4=O)O[C@@H]3COP(=O)(O)O[C@H]3[C@@H](O)[C@H](n4ccc(N)nc4=O)O[C@@H]3COP(=O)(O)O[C@H]3[C@@H](O)[C@H](n4ccc(N)nc4=O)O[C@@H]3COP(=O)(O)O[C@H]3[C@@H](O)[C@H](n4ccc(N)nc4=O)O[C@@H]3COP(=O)(O)O[C@H]3[C@@H](O)[C@H](n4ccc(=O)[nH]c4=O)O[C@@H]3COP(=O)(O)O[C@H]3[C@@H](O)[C@H](n4cnc5c(=O)[nH]c(N)nc54)O[C@@H]3COP(=O)(O)O[C@H]3[C@@H](O)[C@H](n4ccc(=O)[nH]c4=O)O[C@@H]3COP(=O)(O)O[C@H]3C[C@H](n4ccc(=O)[nH]c4=O)O[C@@H]3COP(=O)(O)O[C@H]3[C@@H](O)[C@H](n4cnc5c(=O)[nH]c(N)nc54)O[C@@H]3COP(=O)(O)O[C@H]3[C@@H](O)[C@H](n4ccc(=O)[nH]c4=O)O[C@@H]3COP(=O)(O)O[C@H]3[C@@H](O)[C@H](n4cnc5c(=O)[nH]c(N)nc54)O[C@@H]3COP(=O)(O)O[C@H]3[C@@H](O)[C@H](n4cnc5c(=O)[nH]c(N)nc54)O[C@@H]3CO)[C@@H](OP(=O)(O)OC[C@H]3O[C@@H](n4cc(C)c(=O)[nH]c4=O)C[C@@H]3O)[C@H]2O)c(=O)[nH]c1=O`, the result with T47D [1] and in the experiment on T47D [2] was Active. The “fold change (FC)” value in the experiment with T47D [3] came out at 5.5.

For `Cc1cn(CC(=O)N(CCNCC(=O)N(CCNC(=O)CN(CCNC(=O)CN(CCNC(=O)CN(CCNC(=O)CN(CCNC(=O)CN(CCNC(=O)CN(CCNC(=O)CN(CCNC(=O)CN(CCNC(=O)CN(CCNC(=O)CN(CCNC(=O)CN(CCNC(=O)CNC(=O)[C@@H](N)CCCCN)C(=O)Cn2cc(C)c(=O)[nH]c2=O)C(=O)Cn2cnc3nc(N)[nH]c(=O)c32)C(=O)Cn2c(N)ccnc2=O)C(=O)Cn2c(N)ccnc2=O)C(=O)Cn2c(N)ccnc2=O)C(=O)Cn2c(N)ccnc2=O)C(=O)Cn2c(N)ccnc2=O)C(=O)Cn2cnc3c(N)ncnc32)C(=O)Cn2cnc3nc(N)[nH]c(=O)c32)C(=O)Cn2cnc3c(N)ncnc32)C(=O)Cn2c(N)ccnc2=O)C(=O)Cn2cnc3c(N)ncnc32)CC(=O)NCCN(CC(=O)NCCN(CC(=O)NCCN(CC(=O)NCCN(CC(=O)NCCN(CC(=O)NCCN(CC(=O)N[C@@H](CCCCN)C(=O)O)C(=O)Cn2c(N)ccnc2=O)C(=O)Cn2cnc3nc(N)[nH]c(=O)c32)C(=O)Cn2cnc3nc(N)[nH]c(=O)c32)C(=O)Cn2cc(C)c(=O)[nH]c2=O)C(=O)Cn2c(N)ccnc2=O)C(=O)Cn2cnc3nc(N)[nH]c(=O)c32)c(=O)[nH]c1=O`, the inhibition entry in the experiment with T47D [4] and in the experiment on T47D [5] was “inactive” throughout.

On to `Cc1cn(CC(=O)N(CCNC(=O)CN(CCNC(=O)CN(CCNC(=O)CN(CCNC(=O)CN(CCNC(=O)CN(CCNC(=O)CN(CCNC(=O)CN(CCNC(=O)CN(CCNC(=O)CN(CCNC(=O)CN(CCNC(=O)CN(CCNC(=O)CN(CCNC(=O)CN(CCNC(=O)CN(CCNC(=O)CNC(=O)[C@@H](N)CCCCN)C(=O)Cn2ccc(N)nc2=O)C(=O)Cn2ccc(N)nc2=O)C(=O)Cn2cnc3c(N)ncnc32)C(=O)Cn2cnc3c(=O)[nH]c(N)nc32)C(=O)Cn2cc(C)c(=O)[nH]c2=O)C(=O)Cn2ccc(N)nc2=O)C(=O)Cn2ccc(N)nc2=O)C(=O)Cn2cnc3c(N)ncnc32)C(=O)Cn2ccc(N)nc2=O)C(=O)Cn2cnc3c(N)ncnc32)C(=O)Cn2cnc3c(=O)[nH]c(N)nc32)C(=O)Cn2ccc(N)nc2=O)C(=O)Cn2cc(C)c(=O)[nH]c2=O)C(=O)Cn2cnc3c(=O)[nH]c(N)nc32)CC(=O)NCCN(CC(=O)NCCN(CC(=O)NCCN(CC(=O)NCCN(CC(=O)N[C@@H](CCCCN)C(=O)O)C(=O)Cn2cc(C)c(=O)[nH]c2=O)C(=O)Cn2ccc(N)nc2=O)C(=O)Cn2cnc3c(N)ncnc32)C(=O)Cn2ccc(N)nc2=O)c(=O)[nH]c1=O`, for which the inhibition at 0.2 µM in the experiment on T47D [4] and with T47D [5] was 75% in each case. Further, the inhibition result in the experiment with T47D [6] and with T47D [9] was “inactive” throughout. Besides, the inhibition result in the experiment on T47D [7] and in the experiment with T47D [8] was “Active” each time. Moreover, the result with T47D [1] and with T47D [2] was Active. Also, the “fold change (FC)” value in the experiment on T47D [3] is on record as 3.5.

Consider `Cc1cn([C@H]2C[C@H](OP(=O)(O)OC[C@H]3O[C@@H](n4cc(C)c(=O)[nH]c4=O)C[C@@H]3O)[C@@H](COP(=O)(O)O[C@H]3[C@@H](O)[C@H](n4ccc(=O)[nH]c4=O)O[C@@H]3COP(=O)(O)O[C@H]3[C@@H](O)[C@H](n4ccc(N)nc4=O)O[C@@H]3COP(=O)(O)O[C@H]3[C@@H](O)[C@H](n4cnc5c(N)ncnc54)O[C@@H]3COP(=O)(O)O[C@H]3C[C@H](n4cnc5c(N)ncnc54)O[C@@H]3COP(=O)(O)O[C@H]3[C@@H](O)[C@H](n4ccc(N)nc4=O)O[C@@H]3COP(=O)(O)O[C@H]3C[C@H](n4cnc5c(N)ncnc54)O[C@@H]3COP(=O)(O)O[C@H]3[C@@H](O)[C@H](N4CC=C(N)NC4=O)O[C@@H]3COP(=O)(O)O[C@H]3[C@@H](O)[C@H](n4cnc5c(=O)[nH]c(N)nc54)O[C@@H]3COP(=O)(O)O[C@H]3[C@@H](O)[C@H](n4cnc5c(N)ncnc54)O[C@@H]3COP(=O)(O)O[C@H]3[C@@H](O)[C@H](N4CC=C(N)NC4=O)O[C@@H]3COP(=O)(O)O[C@H]3[C@@H](O)[C@H](n4cnc5c(=O)[nH]c(N)nc54)O[C@@H]3COP(=O)(O)O[C@H]3[C@@H](O)[C@H](n4cnc5c(=O)[nH]c(N)nc54)O[C@@H]3COP(=O)(O)O[C@H]3[C@@H](O)[C@H](n4cnc5c(=O)[nH]c(N)nc54)O[C@@H]3COP(=O)(O)O[C@H]3C[C@H](n4cnc5c(N)ncnc54)O[C@@H]3COP(=O)(O)O[C@H]3[C@@H](O)[C@H](n4cnc5c(N)ncnc54)O[C@@H]3COP(=O)(O)O[C@H]3[C@@H](O)[C@H](n4cnc5c(=O)[nH]c(N)nc54)O[C@@H]3COP(=O)(O)O[C@H]3[C@@H](O)[C@H](n4cnc5c(=O)[nH]c(N)nc54)O[C@@H]3COP(=O)(O)O[C@H]3[C@@H](O)[C@H](n4ccc(=O)[nH]c4=O)O[C@@H]3COP(=O)(O)O[C@H]3[C@@H](O)[C@H](n4cnc5c(N)ncnc54)O[C@@H]3CO)O2)c(=O)[nH]c1=O`, for which the outcome with T47D [1] and with T47D [2] was Active.

`Cc1cn(CC(=O)N(CCNC(=O)CN(CCNC(=O)CN(CCNC(=O)CN(CCNC(=O)CN(CCNC(=O)CN(CCNC(=O)CN(CCNC(=O)CNC(=O)[C@@H](N)CCCCN)C(=O)Cn2c(N)ccnc2=O)C(=O)Cn2cnc3c(N)ncnc32)C(=O)Cn2c(N)ccnc2=O)C(=O)Cn2cnc3nc(N)[nH]c(=O)c32)C(=O)Cn2cnc3c(N)ncnc32)C(=O)Cn2cc(C)c(=O)[nH]c2=O)CC(=O)NCCN(CC(=O)NCCN(CC(=O)NCCN(CC(=O)NCCN(CC(=O)NCCN(C(=O)CNCCN(CC(=O)NCCN(CC(=O)NCCN(CC(=O)NCCN(CC(=O)NCCN(CC(=O)NCCN(CC(=O)NCCN(CC(=O)N[C@@H](CCCCN)C(=O)O)C(=O)Cn2cc(C)c(=O)[nH]c2=O)C(=O)Cn2cc(C)c(=O)[nH]c2=O)C(=O)Cn2cc(C)c(=O)[nH]c2=O)C(=O)Cn2cnc3nc(N)[nH]c(=O)c32)C(=O)Cn2cc(C)c(=O)[nH]c2=O)C(=O)Cn2cnc3c(N)ncnc32)C(=O)Cn2c(N)ccnc2=O)C(=O)Cn2cnc3nc(N)[nH]c(=O)c32)C(=O)Cn2cc(C)c(=O)[nH]c2=O)C(=O)Cn2c(N)ccnc2=O)C(=O)Cn2cc(C)c(=O)[nH]c2=O)C(=O)Cn2cc(C)c(=O)[nH]c2=O)c(=O)[nH]c1=O`: the inhibition result in the experiment with T47D [4] and with T47D [5] was “inactive” each time. Moreover, the result with T47D [1] and in the experiment with T47D [2] was inactive.

For the compound `Cc1cn(CC(=O)N(CCNC(=O)CNC(=O)[C@@H](N)CCCCN)CC(=O)NCCN(CC(=O)NCCN(CC(=O)NCCN(CC(=O)NCCN(CC(=O)NCCN(CC(=O)NCCN(CC(=O)NCCN(CC(=O)NCCN(CC(=O)NCCN(CC(=O)NCCN(CC(=O)NCCN(CC(=O)NCCN(CC(=O)NCCN(CC(=O)NCCN(CC(=O)NCCN(CC(=O)NCCN(CC(=O)NCCN(CC(=O)NCCN(CC(=O)N[C@@H](CCCCN)C(=O)O)C(=O)Cn2ccc(N)nc2=O)C(=O)Cn2cnc3c(=O)[nH]c(N)nc32)C(=O)Cn2cnc3c(=O)[nH]c(N)nc32)C(=O)Cn2cc(C)c(=O)[nH]c2=O)C(=O)Cn2cnc3c(N)ncnc32)C(=O)Cn2cnc3c(=O)[nH]c(N)nc32)C(=O)Cn2cc(C)c(=O)[nH]c2=O)C(=O)Cn2cc(C)c(=O)[nH]c2=O)C(=O)Cn2cnc3c(=O)[nH]c(N)nc32)C(=O)Cn2cnc3c(N)ncnc32)C(=O)Cn2cnc3c(=O)[nH]c(N)nc32)C(=O)Cn2ccc(N)nc2=O)C(=O)Cn2ccc(N)nc2=O)C(=O)Cn2cnc3c(N)ncnc32)C(=O)Cn2cnc3c(=O)[nH]c(N)nc32)C(=O)Cn2ccc(N)nc2=O)C(=O)Cn2cnc3c(N)ncnc32)C(=O)Cn2ccc(N)nc2=O)c(=O)[nH]c1=O`, the inhibition entry with T47D [4], with T47D [6], in the experiment with T47D [9] and in the experiment with T47D [5] was “inactive” each time. The result with T47D [1], in the experiment with T47D [2] and with T47D [3] was inactive.
